Source: ChEMBL document CHEMBL1649335, “Discovery of {1-[4-(2-{hexahydropyrrolo[3,4-c]pyrrol-2(1H)-yl}-1H-benzimidazol-1-yl)piperidin-1-yl]cyclooctyl}methanol, systemically potent novel non-peptide agonist of nociceptin/orphanin FQ receptor as analgesic for the treatment of neuropathic pain: design, synthesis, and structure-activity …” (Bioorg Med Chem, 2010)
Calls of active or inactive are those of the source.

Assays:
[1] = in vitro; conditions: human, liver microsomes
[2] = test system: Rattus norvegicus; test: Antiallodynic activity against von Frey hair mechanically stimulated neuropathic pain in sc dosed Sprague-Dawley rat assessed as increase of response threshold after 1 hr; assay type: functional
[3] = biological target: Muscarinic acetylcholine receptor M1 (Homo sapiens) (UniProt P11229); test: Inhibition of human muscarinic M1 receptor at 1 uM relative to control
[4] = species on record: Rattus norvegicus; test: Inhibition of rat chloride channel at 1 uM relative to control
[5] = test system: Rattus norvegicus; test: Antiallodynic activity against von Frey hair mechanically stimulated neuropathic pain in Sprague-Dawley rat assessed as increase of response threshold per site at 55 nmol/site, icv after 20 mins relative to control; assay type: functional
[6] = test system: Rattus norvegicus; test: Antiallodynic activity against von Frey hair mechanically stimulated neuropathic pain in Sprague-Dawley rat assessed as increase of response threshold at 10 mg/kg, sc after 1 hr relative to control; assay type: functional; conditions: route subcutaneous
[7] = biological target: Type-1 angiotensin II receptor (Homo sapiens) (UniProt P30556); test: Inhibition of human angiotensin 2 AT1 receptor at 1 uM relative to control
[8] = biological target: Voltage-gated inwardly rectifying potassium channel KCNH2 (Homo sapiens, UniProt Q12809); test: Displacement of [3H]dofetilide from human ERG expressed in HEK293 cells after 60 mins by liquid scintillation counting; assay type: cell-based
[9] = Drug level Sprague-Dawley rat plasma at 10 mg/kg, sc after 0.5 hrs; assay type: ADME, organism-based; parameters: dose 10 mg/kg, route subcutaneous; conditions: read-out: Drug uptake
[10] = biological target: Sodium-dependent noradrenaline transporter (Homo sapiens) (UniProt P23975); test: Inhibition of human norepinephrine transporter at 1 uM relative to control
[11] = biological target: monoamine oxidase B (Homo sapiens, UniProt P27338); test: Inhibition of human monoamine oxidase B at 1 uM relative to control
[12] = test system: Rattus norvegicus; test: Antiallodynic activity against von Frey hair mechanically stimulated neuropathic pain in sc dosed Sprague-Dawley rat assessed as increase of response threshold; assay type: functional, organism-based
[13] = test system: Rattus norvegicus; test: Antiallodynic activity against von Frey hair mechanically stimulated neuropathic pain in Sprague-Dawley rat assessed as increase of response threshold per site at 170 nmol/site administered intrathecally after 1 hr relative to control; assay type: functional
[14] = test system: Rattus norvegicus; test: Antiallodynic activity against von Frey hair mechanically stimulated neuropathic pain in Sprague-Dawley rat assessed as assessed as minimum effective dose to increase of response threshold per site at 5.5 to 170 nmol/site, icv after 1 hr; assay type: functional, organism-based
[15] = test system: Rattus norvegicus; test: Antiallodynic activity against von Frey hair mechanically stimulated neuropathic pain in Sprague-Dawley rat assessed as effect on allodynia in contralateral paw at 5.5 to 170 nmol/site, icv after 20 mins; assay type: functional, organism-based
[16] = species on record: Rattus norvegicus; test: Inhibition of rat AMPA receptor at 1 uM relative to control
[17] = test system: Rattus norvegicus; test: Antiallodynic activity against von Frey hair mechanically stimulated neuropathic pain in Sprague-Dawley rat assessed as increase of response threshold per site at 170 nmol/site administered intrathecally after 20 mins relative to control; assay type: functional
[18] = biological target: Vasopressin V1a receptor (Homo sapiens) (UniProt P37288); test: Inhibition of human vasopressin V1A receptor at 1 uM relative to control
[19] = test system: Rattus norvegicus; test: Antiallodynic activity against von Frey hair mechanically stimulated neuropathic pain in Sprague-Dawley rat assessed as increase of response threshold at 30 mg/kg, sc after 30 mins relative to control; assay type: functional; conditions: route subcutaneous
[20] = test system: Rattus norvegicus; test: Antiallodynic activity against von Frey hair mechanically stimulated neuropathic pain in intrathecally dosed Sprague-Dawley rat assessed as assessed as minimum effective dose to increase of response threshold per site after 20 mins; assay type: functional
[21] = biological target: Glutamate NMDA receptor (Rattus norvegicus) (UniProt P35439+Q00959+Q00960+Q00961+Q62645+Q8VHN2+Q9R1M7); test: Inhibition of rat NMDA receptor at 1 uM relative to control; assay type: protein-complex assay
[22] = test system: Rattus norvegicus; test: Antiallodynic activity against von Frey hair mechanically stimulated neuropathic pain in Sprague-Dawley rat assessed as increase of response threshold per site at 55 nmol/site administered intrathecally after 20 mins relative to control; assay type: functional
[23] = biological target: Substance-P receptor (Homo sapiens) (UniProt P25103); test: Inhibition of human tachykinin NK1 receptor at 1 uM relative to control
[24] = test system: Rattus norvegicus; test: Antiallodynic activity against von Frey hair mechanically stimulated neuropathic pain in icv dosed Sprague-Dawley rat assessed as assessed as minimum effective dose to increase of response threshold per site after 20 mins; assay type: functional
[25] = biological target: Adenosine receptor A2a (Homo sapiens) (UniProt P29274); test: Inhibition of human adenosine A2A receptor at 1 uM relative to control
[26] = test system: Rattus norvegicus; test: Toxicity in von Frey hair mechanically stimulated neuropathic pain Sprague-Dawley rat model assessed as sedation effect at up to 170 nmol/site, icv; assay type: organism-based; conditions: in vivo, icv_or_intrathecal
[27] = biological target: Histamine H1 receptor (Cavia porcellus) (UniProt P31389); test: Inhibition of guinea pig histamine H1 receptor at 1 uM relative to control
[28] = test system: Rattus norvegicus; test: Antiallodynic activity against von Frey hair mechanically stimulated neuropathic pain in sc dosed Sprague-Dawley rat assessed as assessed as minimum effective dose to increase of response threshold after 1 hr; assay type: functional
[29] = biological target: D(2) dopamine receptor (Homo sapiens) (UniProt P14416); test: Inhibition of human dopamine D2 receptor at 1 uM relative to control
[30] = species on record: Rattus norvegicus; test: Inhibition of rat 5-HT receptor at 1 uM relative to control
[31] = test system: Rattus norvegicus; test: Antiallodynic activity against von Frey hair mechanically stimulated neuropathic pain in sc dosed Sprague-Dawley rat assessed as assessed as minimum effective dose to increase of response threshold after 4 hrs; assay type: functional, organism-based
[32] = biological target: Nociceptin receptor (Homo sapiens, UniProt P41146); test: biochemical
[33] = biological target: 5-hydroxytryptamine receptor 2A (Homo sapiens) (UniProt P28223); test: Inhibition of human 5-HT2A receptor at 1 uM relative to control
[34] = species on record: Rattus norvegicus; test: Inhibition of rat choline transporter at 1 uM relative to control
[35] = biological target: Adenosine receptor A1 (Homo sapiens) (UniProt P30542); test: Inhibition of human adenosine A1 receptor at 1 uM relative to control
[36] = biological target: D(4) dopamine receptor (Homo sapiens) (UniProt P21917); test: Inhibition of human dopamine D4.4 receptor at 1 uM relative to control
[37] = Drug level Sprague-Dawley rat brain at 10 mg/kg, sc after 0.5 hrs; assay type: ADME, organism-based; parameters: dose 10 mg/kg, route subcutaneous; conditions: read-out: Drug uptake
[38] = Drug level Sprague-Dawley rat spinal cord at 10 mg/kg, sc after […]; assay type: ADME, organism-based; parameters: dose 10 mg/kg, route subcutaneous; conditions: read-out: Drug uptake
[39] = species on record: Rattus norvegicus; test: Inhibition of rat neuronal-type nicotinic acetylcholine receptor at 1 uM relative to control
[40] = test system: Rattus norvegicus; test: Antiallodynic activity against von Frey hair mechanically stimulated neuropathic pain in sc dosed Sprague-Dawley rat assessed as increase of response threshold after 30 mins; assay type: functional; conditions: 0.5 h
[41] = test system: Rattus norvegicus; test: Antiallodynic activity against von Frey hair mechanically stimulated neuropathic pain in Sprague-Dawley rat assessed as effect on allodynia in contralateral paw at 5.5 to 170 nmol/site administered intrathecally after 20 mins; assay type: functional, organism-based
[42] = Drug level Sprague-Dawley rat cerebrospinal fluid at 10 mg/kg, sc after 0.5 hrs; assay type: ADME, organism-based; parameters: dose 10 mg/kg, route subcutaneous; conditions: read-out: Drug uptake
[43] = biological target: Beta-2 adrenergic receptor (Homo sapiens) (UniProt P07550); test: Inhibition of human beta2 adrenoceptor at 1 uM relative to control

Sequence of 5-hydroxytryptamine receptor 2A (Homo sapiens) (P28223 whole entry): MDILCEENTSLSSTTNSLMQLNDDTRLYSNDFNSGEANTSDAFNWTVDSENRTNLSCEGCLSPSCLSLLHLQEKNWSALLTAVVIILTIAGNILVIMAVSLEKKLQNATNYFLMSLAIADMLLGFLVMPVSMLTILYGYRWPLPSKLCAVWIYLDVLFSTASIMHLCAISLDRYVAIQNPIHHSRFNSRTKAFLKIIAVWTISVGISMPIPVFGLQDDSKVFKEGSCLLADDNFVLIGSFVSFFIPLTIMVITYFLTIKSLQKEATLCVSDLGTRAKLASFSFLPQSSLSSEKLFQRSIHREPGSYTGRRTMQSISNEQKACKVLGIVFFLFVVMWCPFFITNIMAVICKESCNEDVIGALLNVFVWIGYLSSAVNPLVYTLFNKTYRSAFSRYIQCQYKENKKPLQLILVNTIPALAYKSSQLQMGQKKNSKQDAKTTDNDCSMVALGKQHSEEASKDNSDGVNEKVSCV
Sequence of Sodium-dependent noradrenaline transporter (Homo sapiens) (P23975 whole entry): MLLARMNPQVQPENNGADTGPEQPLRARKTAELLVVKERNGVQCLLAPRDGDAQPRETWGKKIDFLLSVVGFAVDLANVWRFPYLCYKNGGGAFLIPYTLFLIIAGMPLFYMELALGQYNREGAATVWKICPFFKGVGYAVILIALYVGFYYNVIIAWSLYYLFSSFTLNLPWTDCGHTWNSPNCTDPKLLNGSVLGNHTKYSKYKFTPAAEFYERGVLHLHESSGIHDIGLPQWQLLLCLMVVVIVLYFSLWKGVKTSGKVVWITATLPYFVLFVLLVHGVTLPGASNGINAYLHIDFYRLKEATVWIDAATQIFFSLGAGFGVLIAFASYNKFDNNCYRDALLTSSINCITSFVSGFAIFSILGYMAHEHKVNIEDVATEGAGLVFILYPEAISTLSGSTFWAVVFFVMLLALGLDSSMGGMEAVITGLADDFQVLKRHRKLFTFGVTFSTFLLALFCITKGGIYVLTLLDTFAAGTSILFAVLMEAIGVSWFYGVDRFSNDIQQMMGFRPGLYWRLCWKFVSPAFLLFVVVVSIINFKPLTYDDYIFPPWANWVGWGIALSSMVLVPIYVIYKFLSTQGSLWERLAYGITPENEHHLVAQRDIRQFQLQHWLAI
Sequence of Substance-P receptor (Homo sapiens) (P25103 whole entry): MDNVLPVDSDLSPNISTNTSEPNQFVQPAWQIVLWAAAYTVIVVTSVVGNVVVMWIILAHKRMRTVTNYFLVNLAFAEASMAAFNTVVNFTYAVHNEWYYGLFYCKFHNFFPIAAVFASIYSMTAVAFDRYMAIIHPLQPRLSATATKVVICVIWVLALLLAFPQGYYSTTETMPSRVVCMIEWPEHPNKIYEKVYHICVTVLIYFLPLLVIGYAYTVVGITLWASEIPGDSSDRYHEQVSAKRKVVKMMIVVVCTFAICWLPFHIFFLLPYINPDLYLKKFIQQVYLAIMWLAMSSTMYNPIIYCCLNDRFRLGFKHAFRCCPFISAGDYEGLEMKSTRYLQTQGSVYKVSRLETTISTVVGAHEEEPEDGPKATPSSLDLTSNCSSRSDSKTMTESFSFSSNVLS
Sequence of Voltage-gated inwardly rectifying potassium channel KCNH2 (Q12809 whole entry): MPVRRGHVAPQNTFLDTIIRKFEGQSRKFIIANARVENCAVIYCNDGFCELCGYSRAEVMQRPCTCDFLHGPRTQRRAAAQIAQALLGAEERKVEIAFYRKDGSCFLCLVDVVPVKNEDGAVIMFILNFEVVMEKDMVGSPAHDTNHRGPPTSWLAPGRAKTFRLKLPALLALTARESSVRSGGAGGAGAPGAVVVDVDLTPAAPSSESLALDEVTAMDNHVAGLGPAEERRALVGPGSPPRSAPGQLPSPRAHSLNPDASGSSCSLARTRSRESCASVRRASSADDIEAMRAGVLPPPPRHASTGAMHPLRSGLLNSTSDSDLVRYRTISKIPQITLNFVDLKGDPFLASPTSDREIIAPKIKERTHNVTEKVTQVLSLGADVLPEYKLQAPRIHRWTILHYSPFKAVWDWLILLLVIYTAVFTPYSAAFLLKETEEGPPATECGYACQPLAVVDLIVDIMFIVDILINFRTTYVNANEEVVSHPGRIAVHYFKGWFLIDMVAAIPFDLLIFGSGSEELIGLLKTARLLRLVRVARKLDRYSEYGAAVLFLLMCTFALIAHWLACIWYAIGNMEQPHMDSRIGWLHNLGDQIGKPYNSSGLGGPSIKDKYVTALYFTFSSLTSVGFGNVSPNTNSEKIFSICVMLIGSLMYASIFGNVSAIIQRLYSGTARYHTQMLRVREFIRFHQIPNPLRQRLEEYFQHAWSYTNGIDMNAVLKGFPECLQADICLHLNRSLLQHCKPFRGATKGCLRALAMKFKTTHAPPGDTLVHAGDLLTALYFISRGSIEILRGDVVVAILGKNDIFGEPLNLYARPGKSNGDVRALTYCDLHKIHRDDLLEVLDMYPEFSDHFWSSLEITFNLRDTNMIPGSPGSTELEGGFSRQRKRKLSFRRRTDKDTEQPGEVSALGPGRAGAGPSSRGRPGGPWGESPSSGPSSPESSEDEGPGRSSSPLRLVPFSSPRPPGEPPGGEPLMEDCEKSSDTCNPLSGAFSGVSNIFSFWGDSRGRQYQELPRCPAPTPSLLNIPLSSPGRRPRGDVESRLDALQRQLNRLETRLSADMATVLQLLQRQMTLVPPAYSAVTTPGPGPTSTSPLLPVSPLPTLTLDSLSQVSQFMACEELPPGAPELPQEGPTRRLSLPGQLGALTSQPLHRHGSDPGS
Sequence of Adenosine receptor A2a (Homo sapiens) (P29274 whole entry): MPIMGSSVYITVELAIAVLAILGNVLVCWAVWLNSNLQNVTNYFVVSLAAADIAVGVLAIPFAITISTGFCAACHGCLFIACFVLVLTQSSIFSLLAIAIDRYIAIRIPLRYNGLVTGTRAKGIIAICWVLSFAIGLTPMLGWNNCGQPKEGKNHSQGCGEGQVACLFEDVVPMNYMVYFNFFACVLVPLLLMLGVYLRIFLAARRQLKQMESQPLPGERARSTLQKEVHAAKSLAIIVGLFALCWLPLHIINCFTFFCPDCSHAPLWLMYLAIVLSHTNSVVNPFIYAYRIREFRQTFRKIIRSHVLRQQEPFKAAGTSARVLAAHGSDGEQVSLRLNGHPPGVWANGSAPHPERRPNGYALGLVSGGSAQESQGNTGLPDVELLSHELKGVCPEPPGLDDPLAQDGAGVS
Sequence of Adenosine receptor A1 (Homo sapiens) (P30542 whole entry): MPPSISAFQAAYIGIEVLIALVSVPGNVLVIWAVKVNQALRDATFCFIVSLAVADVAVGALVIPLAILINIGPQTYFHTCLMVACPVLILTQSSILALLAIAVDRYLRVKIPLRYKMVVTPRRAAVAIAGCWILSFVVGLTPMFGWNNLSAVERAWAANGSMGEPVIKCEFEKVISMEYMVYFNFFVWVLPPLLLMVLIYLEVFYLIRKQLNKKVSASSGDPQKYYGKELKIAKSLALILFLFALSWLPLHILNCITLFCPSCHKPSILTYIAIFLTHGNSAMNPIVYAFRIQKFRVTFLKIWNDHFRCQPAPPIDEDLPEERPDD
Sequence of Muscarinic acetylcholine receptor M1 (Homo sapiens) (P11229 whole entry): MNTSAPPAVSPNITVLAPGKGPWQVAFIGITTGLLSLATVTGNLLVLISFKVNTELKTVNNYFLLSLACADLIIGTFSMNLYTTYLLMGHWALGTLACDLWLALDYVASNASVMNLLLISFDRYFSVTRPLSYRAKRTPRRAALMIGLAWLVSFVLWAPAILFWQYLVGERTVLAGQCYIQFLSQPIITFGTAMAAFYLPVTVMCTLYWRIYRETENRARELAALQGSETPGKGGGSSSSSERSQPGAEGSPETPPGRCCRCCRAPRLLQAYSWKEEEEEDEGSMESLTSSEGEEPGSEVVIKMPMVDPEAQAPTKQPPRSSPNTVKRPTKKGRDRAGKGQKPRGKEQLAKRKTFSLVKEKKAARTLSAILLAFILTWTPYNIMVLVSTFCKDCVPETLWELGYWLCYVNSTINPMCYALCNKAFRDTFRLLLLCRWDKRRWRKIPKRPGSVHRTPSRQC
Sequence of Vasopressin V1a receptor (Homo sapiens) (P37288 whole entry, looked up): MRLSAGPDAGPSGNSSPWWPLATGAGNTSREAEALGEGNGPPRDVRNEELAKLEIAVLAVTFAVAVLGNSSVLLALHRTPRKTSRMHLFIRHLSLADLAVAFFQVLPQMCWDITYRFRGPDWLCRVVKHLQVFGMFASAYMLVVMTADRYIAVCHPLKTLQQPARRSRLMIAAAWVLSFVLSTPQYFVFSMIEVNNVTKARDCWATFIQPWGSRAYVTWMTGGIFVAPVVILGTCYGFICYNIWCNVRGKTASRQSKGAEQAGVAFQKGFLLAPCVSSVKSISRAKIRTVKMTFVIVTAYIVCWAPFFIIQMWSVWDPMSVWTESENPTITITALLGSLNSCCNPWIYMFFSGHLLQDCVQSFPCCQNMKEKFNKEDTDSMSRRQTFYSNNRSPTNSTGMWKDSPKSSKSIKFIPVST
Sequence of Nociceptin receptor (P41146 whole entry): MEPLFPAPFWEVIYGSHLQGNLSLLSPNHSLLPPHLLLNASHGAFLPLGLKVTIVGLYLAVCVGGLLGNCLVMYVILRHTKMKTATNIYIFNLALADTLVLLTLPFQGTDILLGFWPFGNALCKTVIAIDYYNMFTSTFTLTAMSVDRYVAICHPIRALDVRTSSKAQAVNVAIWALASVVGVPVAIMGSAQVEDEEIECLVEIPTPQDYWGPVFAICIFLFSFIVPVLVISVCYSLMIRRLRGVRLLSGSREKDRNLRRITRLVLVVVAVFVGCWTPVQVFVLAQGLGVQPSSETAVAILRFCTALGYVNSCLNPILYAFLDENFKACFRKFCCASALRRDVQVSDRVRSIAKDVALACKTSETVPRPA
Sequence of Type-1 angiotensin II receptor (Homo sapiens) (P30556 whole entry): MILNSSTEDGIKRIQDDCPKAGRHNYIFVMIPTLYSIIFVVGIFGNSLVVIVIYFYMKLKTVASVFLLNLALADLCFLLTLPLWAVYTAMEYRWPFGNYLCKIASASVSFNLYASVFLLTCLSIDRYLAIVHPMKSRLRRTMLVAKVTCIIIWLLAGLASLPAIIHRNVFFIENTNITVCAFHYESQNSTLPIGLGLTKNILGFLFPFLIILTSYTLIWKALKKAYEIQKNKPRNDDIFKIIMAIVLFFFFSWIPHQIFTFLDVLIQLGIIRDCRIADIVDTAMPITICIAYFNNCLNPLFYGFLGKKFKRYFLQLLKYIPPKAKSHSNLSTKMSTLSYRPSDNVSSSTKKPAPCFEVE

OCC1(N2CCC(n3c(N4CC5CNCC5C4)nc4ccccc43)CC2)CCCCCCC1 (stereo not drawn)
half-life at 1 µM [1]: 45.6 min
ED50 [2]: 10.8 mg/kg
inhibition [3]: 15%
inhibition [4]: < 10%
Activity [5]: 23.7%
Activity [6]: 37.6%
inhibition [7]: < 10%
Ki [8]: 3700 nM
concentration at 0.5 h [9]: 600 ng/mL
inhibition [10]: < 10%
inhibition at 1 µM [11]: < 10%
Activity [12]: Dose-dependent effect
Activity [13]: 45.5%
MED [14]: inactive
Activity [15]: inactive
inhibition [16]: < 10%
Activity [17]: 59.3%
inhibition [18]: < 10%
Activity [19]: 57.6%
MED [20]: 55 nmol
inhibition [21]: < 10%
Activity [22]: 49.4%
inhibition [23]: < 10%
MED [24]: 55 nmol
inhibition [25]: < 10%
Activity [26]: Non-toxic
inhibition [27]: < 10%
MED [28]: 10 mg/kg
inhibition [29]: < 10%
inhibition [30]: < 10%
MED [31]: inactive
Ki [32]: 1.44 nM
inhibition [33]: < 10%
inhibition [34]: 11%
inhibition [35]: < 10%
inhibition [36]: < 10%
concentration at 0.5 h [37]: 152 ng/mL
concentration at […] [38]: 63 ng/mL
inhibition [39]: < 10%
ED50 [40]: 26.8 mg/kg
Activity [41]: inactive
concentration at 0.5 h [42]: 11 ng/mL
inhibition [43]: 53%
